13 compounds from patent US20070203066A1, “Compositions and methods for inhibiting cellular proliferation” (priority 2005, published 2007) can be followed below.

For one assay, the system named is HUVECs. Type of assay: cell-based. The method in brief: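 Proliferation read-out: BrdU incorporation after 48-hour culture (37 ° C, 5% CO2) with graded peptide doses. Cells were in EBM with 2% FCS at 5,000 per well, driven by VEGF (5 ng/ml) or bFGF (10 ng/ml), added after ≥12-hour attachment.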
Assay [1] concerns bFGF-induced angiogenesis in Matrigel plugs. Kind of assay: Murine Matrigel plug angiogenesis assay. Type of assay: in vivo, C57B1/6 mice. The settings on record: 10-12 days of treatment, hemoglobin in plugs vs +bFGF/Buffer control. As to the method: In order to assess the effect of the peptides in this invention on angiogenesis, an additional assay was used to assess antiangiogenic activity.
Briefly, Matrigel (BD Biosciences, San Jose, Calif.) is mixed with 0.5 μg/ml of bFGF. 0.5 ml of this Matrigel/bFGF mixture is then injected subcutaneously on the ventral abdominal surface at the level of the xiphoid process of C57B1/6 mice. Matrigel plugs, injected in absence of bFGF addition, are used as negative controls. Treatment with various peptides is initiated 12-18 hours later. Animals are treated by i.p. administration of peptides, dosed at 0.2mg/d of peptide dimers, and 1.4 mg/d of Pegylated peptide dimers. After 10-12 days of treatment, animals are euthanized, and the Matrigel plugs are surgically removed, and cleaned of mouse tissue, fascia, and fat. […] After centrifugation, supernatant for each plug is assayed for the presence of Hemoglobin using a Serum Hemoglobin analysis kit (Sigma Diagnostics, St. Louis, Mo.). Angiogenesis is defined as the fold increase of hemoglobin in the buffer control treated mouse Matrigel plugs, above the amount of hemoglobin in negative (−bFGF) control Matrigel plugs. For experimental peptide treated animals, the percent inhibition is defined as the inhibition seen when comparing positive control plugs (+bFGF/ Buffer treatment) with peptide treated plugs (+bFGF/ Peptide treatment).

The next assay has as its system MDA-MB-231 cells. Kind of assay: Proliferation assay of tumor cells (BrdU incorporation), MDA-MB-231. Format: cell-based. The settings on record: MDA-MB-231 proliferation, 48 hours, read-out: Inhibitory Activity (IC50 uM) MDA-MB-231. As to the method:
(§1) The antiproliferative activity of selected peptides of the present invention was assessed on several tumor cell lines. Mouse Lewis lung carcinoma (LLC) cells were routinely cultured to near confluency in DMEM media with 10% FCS added. The cells were trypsinized and plated in a 96-well plate at 5,000 cells per well per 100 μl media supplemented with 2% FCS and antibiotics. MDA-MB-231 cells were routinely cultured to near confluency in advanced DMEM media supplemented with 10% FCS. The cells were allowed to adhere to the plate for at least 12 hours. Then, whole media and various concentrations of peptide, were added to the wells. The cells were cultured for 48 hours at 37 ° C. in a 5% CO2 atmosphere. Cell proliferation was determined using a bromo-deoxyuridine (BrdU) incorporation method as described by the manufacturer. Inhibition of cell proliferation, was assessed by BrdU incorporation.
(§2) The ability of representative peptides of this invention for their ability to inhibit various tumor cells line proliferation are listed below in Table 2.
(Uptake of a labelled nucleoside into DNA is a usual measure of proliferation.)

Assay [2] concerns Mouse Lewis lung carcinoma (LLC) cells. In words: Proliferation assay of tumor cells (BrdU incorporation), LLC. Type of assay: cell-based. The settings on record: 48 hours, read-out: Inhibitory Activity (IC50 uM) LLC. The protocol: as §1, §2
Setting [3] is: HUVEC proliferation, bFGF at 10 ng/ml or VEGF at 5 ng/ml, 48 hours, BrdU incorporation, read-out: IC50 on HUVECs.
The mark [4] stands for this setting: Pegylated peptide dimers, i.p. 1.4 mg/d.

Read-outs that look alike come from different tables or passages of the source. Positions of bridges follow the written chain, without caps; N, C: chain ends. Residues, ends and D or L forms follow the SMILES beside them. Chains are numbered I, II in the order given. No end group written: not given here. Ida = iminodiacetic acid linker, its two carboxyls bind the Lys side-chain amines of two peptides, giving a homodimer

For orientation: IC50 means the concentration needed to halve the response being measured. With “167 (Ac-RRRRRQRVRIIFK; not fully specified (C-terminus); also: homodimer via Ida linker on Lys13 side chains) [compound 167]”, the IC50 in the assay on HUVECs (setting [3]) was under 10 µM. Further, the “Matrigel Model % Inhibition” value in assay [1] (peptide dimers, i.p. 0.2mg/d) is on record as 42.0%.
As to “228 (Ac-ARRRRQRVAIYFK; also: homodimer via Ida linker on side chain of Lys13) [compound 228]”, in the assay with HUVECs (setting [3]), the half-inhibitory concentration (IC50) is under 10 µM. The “Matrigel Model % Inhibition” value in assay [1] (peptide dimers, i.p. 0.2mg/d) was determined as 55.0%.
On the same counts, the results for “267 (Ac-RRRRRQAVAIYFK-NH2; not fully specified (residue 13); also: homodimer via Ida linker on Lys13 side chain) [compound 267]” are under 10 µM and 36.0%.
In the case of “279 (Ac-RRRRRQRVRIYFK-NH2; not fully specified (residue 13); also: homodimer via Ida linker on Lys13 side chain) [compound 279]”, in the assay with HUVECs (setting [3]), the concentration for half-maximal inhibition (IC50) is under 10 µM. Besides, the “Matrigel Model % Inhibition” value in assay [1] (peptide dimers, i.p. 0.2mg/d) is 56.0%.
As to “315 (Ac-ARRRRQAVAIYFK(Ida)-NH2; also: homodimer via Ida linker on Lys13 side chain) [compound 315]”, the half-inhibitory concentration (IC50) with HUVECs (setting [3]) is under 10 µM. Besides, the “Matrigel Model % Inhibition” value in assay [1] (peptide dimers, i.p. 0.2mg/d) is on record as 52.0%.
On the same counts, the results for “331 (Ac-ARRRRQRVAIYFK-NH2; not fully specified (residue 13); also: homodimer via Lys13 side chain, GP3 linker) [compound 331]” are under 10 µM and 44.0%.
Regarding “375 (Ac-RRRRRQRVRIIFK-NH2; not fully specified (residue 13); also: homodimer via Ida-PEG 30 kDa linker on Lys13 side chain) [compound 375]”, the IC50 with HUVECs (setting [3]) was under 10 µM. Moreover, the “Matrigel Model % Inhibition” value in assay [1] (setting [4]) was determined as 46.0%.
Regarding “376 (Ac-ARRRRQRVAIYFK-NH2; not fully specified (residue 13); also: homodimer via Ida-PEG 30 kDa linker on Lys13 side chain) [compound 376]”, the IC50 in the assay on HUVECs (setting [3]) was under 10 µM. For the same compound, the “Matrigel Model % Inhibition” value in assay [1] (setting [4]) stood at 42.0%.
Regarding “381 (Ac-ARRRRQAVAIYFK-NH2; not fully specified (residue 13); also: homodimer via Ida-PEG 30 kDa linker on Lys13 side chain) [compound 381]”, the half-inhibitory concentration (IC50) in the assay with HUVECs (setting [3]) is under 10 µM. The “Matrigel Model % Inhibition” value in assay [1] (setting [4]) turned out to be 51.0%.
Regarding `CC[C@H](C)[C@H](NC(=O)[C@H](CCCNC(=N)N)NC(=O)[C@@H](NC(=O)[C@H](CCCNC(=N)N)NC(=O)[C@H](CCC(N)=O)NC(=O)[C@H](CCCNC(=N)N)NC(=O)[C@H](CCCNC(=N)N)NC(=O)[C@H](CCCNC(=N)N)NC(=O)[C@H](CCCNC(=N)N)NC(=O)[C@@H](N)CCCNC(=N)N)C(C)C)C(=O)N[C@H](C(=O)N[C@@H](Cc1ccccc1)C(=O)NCCCC[C@H](NC(=O)[C@H](Cc1ccccc1)NC(=O)[C@@H](NC(=O)[C@@H](NC(=O)[C@H](CCCNC(=N)N)NC(=O)[C@@H](NC(=O)[C@H](CCCNC(=N)N)NC(=O)[C@H](CCC(N)=O)NC(=O)[C@H](CCCNC(=N)N)NC(=O)[C@H](CCCNC(=N)N)NC(=O)[C@H](CCCNC(=N)N)NC(=O)[C@H](CCCNC(=N)N)NC(=O)[C@@H](N)CCCNC(=N)N)C(C)C)[C@@H](C)CC)[C@@H](C)CC)C(N)=O)[C@@H](C)CC` [Peptide 132] (I: H-RRRRRQRVRIIFK-NH2 / II: H-RRRRRQRVRIIF; amide I:13-II:C; N-terminus assumed), the IC50 (in the assay with HUVECs (48 h); in the assay with MDA-MB-231 cells; in assay [2]) was under 10 µM each time.
Regarding `CC[C@H](C)[C@H](NC(=O)[C@H](C)NC(=O)[C@@H](NC(=O)[C@H](CCCNC(=N)N)NC(=O)[C@H](CCC(N)=O)NC(=O)[C@H](CCCNC(=N)N)NC(=O)[C@H](C)NC(=O)[C@H](Cc1c[nH]cn1)NC(=O)[C@H](CCCNC(=N)N)NC(=O)[C@H](C)NC(C)=O)C(C)C)C(=O)N[C@H](C(=O)N[C@@H](Cc1ccccc1)C(=O)NCCCC[C@H](NC(=O)[C@H](Cc1ccccc1)NC(=O)[C@@H](NC(=O)[C@@H](NC(=O)[C@H](C)NC(=O)[C@@H](NC(=O)[C@H](CCCNC(=N)N)NC(=O)[C@H](CCC(N)=O)NC(=O)[C@H](CCCNC(=N)N)NC(=O)[C@H](C)NC(=O)[C@H](Cc1c[nH]cn1)NC(=O)[C@H](CCCNC(=N)N)NC(=O)[C@H](C)NC(C)=O)C(C)C)[C@@H](C)CC)[C@@H](C)CC)C(N)=O)[C@@H](C)CC` [Peptide 214] (I: Ac-ARHARQRVAIIFK-NH2 / II: Ac-ARHARQRVAIIF; amide I:13-II:C), the IC50 (in the assay on HUVECs (48 h); with MDA-MB-231 cells; in assay [2]) was over 30 µM in each case.
As to `CC[C@H](C)[C@H](NC(=O)[C@H](CCCNC(=N)N)NC(=O)[C@@H](NC(=O)[C@H](CCCNC(=N)N)NC(=O)[C@H](CCC(N)=O)NC(=O)[C@H](CCCNC(=N)N)NC(=O)[C@H](Cc1c[nH]cn1)NC(=O)[C@H](Cc1c[nH]cn1)NC(=O)[C@H](CCCNC(=N)N)NC(=O)[C@H](CCCNC(=N)N)NC(C)=O)C(C)C)C(=O)N[C@H](C(=O)N[C@@H](Cc1ccccc1)C(=O)NCCCC[C@H](NC(=O)[C@H](Cc1ccccc1)NC(=O)[C@@H](NC(=O)[C@@H](NC(=O)[C@H](CCCNC(=N)N)NC(=O)[C@@H](NC(=O)[C@H](CCCNC(=N)N)NC(=O)[C@H](CCC(N)=O)NC(=O)[C@H](CCCNC(=N)N)NC(=O)[C@H](Cc1c[nH]cn1)NC(=O)[C@H](Cc1c[nH]cn1)NC(=O)[C@H](CCCNC(=N)N)NC(=O)[C@H](CCCNC(=N)N)NC(C)=O)C(C)C)[C@@H](C)CC)[C@@H](C)CC)C(N)=O)[C@@H](C)CC` [Peptide 240] (I: Ac-RRHHRQRVRIIFK-NH2 / II: Ac-RRHHRQRVRIIF; amide I:13-II:C), the concentration for half-maximal inhibition (IC50) (in the assay with HUVECs (48 h); in the assay on MDA-MB-231 cells; in assay [2]) was under 10 µM each time.
On to `CC[C@H](C)[C@H](NC(=O)[C@H](CCCNC(=N)N)NC(=O)[C@@H](NC(=O)[C@H](Cc1c[nH]cn1)NC(=O)[C@H](CCC(N)=O)NC(=O)[C@H](CCCNC(=N)N)NC(=O)[C@H](Cc1c[nH]cn1)NC(=O)[C@H](CCCNC(=N)N)NC(=O)[C@H](CCCNC(=N)N)NC(=O)[C@H](CCCNC(=N)N)NC(C)=O)C(C)C)C(=O)N[C@H](C(=O)N[C@@H](Cc1ccccc1)C(=O)NCCCC[C@H](NC(=O)[C@H](Cc1ccccc1)NC(=O)[C@@H](NC(=O)[C@@H](NC(=O)[C@H](CCCNC(=N)N)NC(=O)[C@@H](NC(=O)[C@H](Cc1c[nH]cn1)NC(=O)[C@H](CCC(N)=O)NC(=O)[C@H](CCCNC(=N)N)NC(=O)[C@H](Cc1c[nH]cn1)NC(=O)[C@H](CCCNC(=N)N)NC(=O)[C@H](CCCNC(=N)N)NC(=O)[C@H](CCCNC(=N)N)NC(C)=O)C(C)C)[C@@H](C)CC)[C@@H](C)CC)C(N)=O)[C@@H](C)CC` [Peptide 244] (I: Ac-RRRHRQHVRIIFK-NH2 / II: Ac-RRRHRQHVRIIF; amide I:13-II:C), for which the concentration for half-maximal inhibition (IC50) (with HUVECs (48 h); with MDA-MB-231 cells; in assay [2]) was under 10 µM each time.
